# In patent publication US12304890B2, “R-type pyridyloxycarboxylic acid, salt and ester derivative thereof, and preparation method therefor, and herbicidal composition and application thereof” (Qingdao Kingagroot Chemical Compound Co., Ltd., priority 2018, dated 2025):
# How the values were obtained:
# Assay type in all cases: in vivo
# Echinochloa crusgalli = assay: Post-emergence test experiment, Echinochloa crusgalli; conditions: 1000 g a.i./ha, 3 weeks in greenhouse, fresh weight inhibition
# Method in brief: (§1)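 Seeds sown under 0.5-2 cm soil; sprayed post-emergence at 2-3 leaves with acetone/tween-80 solution plus 1.5 L/ha methyl oleate EC; greenhouse 3 wk; % fresh weight inhibition.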
# Digitaria sanguinalis = assay: Post-emergence test experiment, Digitaria sanguinalis; conditions: 1000 g a.i./ha, 3 weeks in greenhouse, fresh weight inhibition
# Method in brief: as §1
# [1] = tested on: Monocotyledonous and dicotyledonous weed seeds and main crop seeds; assay: Post-emergence test experiment, other weeds and crops (Table 4, 1000 g a.i./ha); conditions: 3 weeks in greenhouse, fresh weight inhibition
# Method in brief: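 Growth inhibition is scored on fresh weight. Spray solutions were made in acetone with tween-80, diluted in water, plus 1.5 L/ha methyl oleate emulsible concentrate. Plants from greenhouse-grown weed and crop seeds were treated post-emergence at 2-3 leaves, 2 weeks after sowing.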
Compound,"Activity level (growth inhibition rate), Echinochloa crusgalli (Echinochloa crusgalli)","Activity level (growth inhibition rate), Digitaria sanguinalis (Digitaria sanguinalis)","Activity level (growth inhibition rate), Abutilon theophrasti Medic. [1]","Activity level (growth inhibition rate), Galium aparine [1]","Activity level (growth inhibition rate), Monochoria Vaginalis [1]"
CC(Oc1nc(F)c(Cl)c(N)c1Cl)C(=O)Oc1ccccc1 (stereo not drawn) [Compound 2-299],5 (Level 5: the growth inhibition rate is greater than 85%),5 (Level 5: the growth inhibition rate is greater than 85%),5 (Level 5: the growth inhibition rate is greater than 85%),5 (Level 5: the growth inhibition rate is greater than 85%),5 (Level 5: the growth inhibition rate is greater than 85%)
CC(Oc1nc(F)c(Cl)c(N)c1Cl)C(=O)SCc1ccccc1 (stereo not drawn) [Compound 2-301],5 (Level 5: the growth inhibition rate is greater than 85%),5 (Level 5: the growth inhibition rate is greater than 85%),5 (Level 5: the growth inhibition rate is greater than 85%),5 (Level 5: the growth inhibition rate is greater than 85%),5 (Level 5: the growth inhibition rate is greater than 85%)
Cc1ccccc1COC(=O)C(C)Oc1nc(F)c(Cl)c(N)c1Cl (stereo not drawn) [Compound 2-302],5 (Level 5: the growth inhibition rate is greater than 85%),5 (Level 5: the growth inhibition rate is greater than 85%),5 (Level 5: the growth inhibition rate is greater than 85%),5 (Level 5: the growth inhibition rate is greater than 85%),5 (Level 5: the growth inhibition rate is greater than 85%)
Cc1ccccc1CSC(=O)C(C)Oc1nc(F)c(Cl)c(N)c1Cl (stereo not drawn) [Compound 2-303],5 (Level 5: the growth inhibition rate is greater than 85%),5 (Level 5: the growth inhibition rate is greater than 85%),5 (Level 5: the growth inhibition rate is greater than 85%),5 (Level 5: the growth inhibition rate is greater than 85%),5 (Level 5: the growth inhibition rate is greater than 85%)
Cc1cccc(COC(=O)C(C)Oc2nc(F)c(Cl)c(N)c2Cl)c1 (stereo not drawn) [Compound 2-304],5 (Level 5: the growth inhibition rate is greater than 85%),5 (Level 5: the growth inhibition rate is greater than 85%),5 (Level 5: the growth inhibition rate is greater than 85%),5 (Level 5: the growth inhibition rate is greater than 85%),5 (Level 5: the growth inhibition rate is greater than 85%)
Cc1cccc(CSC(=O)C(C)Oc2nc(F)c(Cl)c(N)c2Cl)c1 (stereo not drawn) [Compound 2-305],5 (Level 5: the growth inhibition rate is greater than 85%),5 (Level 5: the growth inhibition rate is greater than 85%),5 (Level 5: the growth inhibition rate is greater than 85%),5 (Level 5: the growth inhibition rate is greater than 85%),5 (Level 5: the growth inhibition rate is greater than 85%)
Cc1ccc(COC(=O)C(C)Oc2nc(F)c(Cl)c(N)c2Cl)cc1 (stereo not drawn) [Compound 2-306],5 (Level 5: the growth inhibition rate is greater than 85%),5 (Level 5: the growth inhibition rate is greater than 85%),5 (Level 5: the growth inhibition rate is greater than 85%),5 (Level 5: the growth inhibition rate is greater than 85%),5 (Level 5: the growth inhibition rate is greater than 85%)
Cc1ccc(CSC(=O)C(C)Oc2nc(F)c(Cl)c(N)c2Cl)cc1 (stereo not drawn) [Compound 2-307],5 (Level 5: the growth inhibition rate is greater than 85%),5 (Level 5: the growth inhibition rate is greater than 85%),5 (Level 5: the growth inhibition rate is greater than 85%),5 (Level 5: the growth inhibition rate is greater than 85%),5 (Level 5: the growth inhibition rate is greater than 85%)
CC(Oc1nc(F)c(Cl)c(N)c1Cl)C(=O)OCc1ccccc1F (stereo not drawn) [Compound 2-308],5 (Level 5: the growth inhibition rate is greater than 85%),5 (Level 5: the growth inhibition rate is greater than 85%),5 (Level 5: the growth inhibition rate is greater than 85%),5 (Level 5: the growth inhibition rate is greater than 85%),5 (Level 5: the growth inhibition rate is greater than 85%)
CC(Oc1nc(F)c(Cl)c(N)c1Cl)C(=O)SCc1ccccc1F (stereo not drawn) [Compound 2-309],5 (Level 5: the growth inhibition rate is greater than 85%),5 (Level 5: the growth inhibition rate is greater than 85%),5 (Level 5: the growth inhibition rate is greater than 85%),5 (Level 5: the growth inhibition rate is greater than 85%),5 (Level 5: the growth inhibition rate is greater than 85%)
CC(Oc1nc(F)c(Cl)c(N)c1Cl)C(=O)OCc1cccc(F)c1 (stereo not drawn) [Compound 2-310],5 (Level 5: the growth inhibition rate is greater than 85%),5 (Level 5: the growth inhibition rate is greater than 85%),5 (Level 5: the growth inhibition rate is greater than 85%),5 (Level 5: the growth inhibition rate is greater than 85%),5 (Level 5: the growth inhibition rate is greater than 85%)
CC(Oc1nc(F)c(Cl)c(N)c1Cl)C(=O)SCc1cccc(F)c1 (stereo not drawn) [Compound 2-311],5 (Level 5: the growth inhibition rate is greater than 85%),5 (Level 5: the growth inhibition rate is greater than 85%),5 (Level 5: the growth inhibition rate is greater than 85%),5 (Level 5: the growth inhibition rate is greater than 85%),5 (Level 5: the growth inhibition rate is greater than 85%)
CC(Oc1nc(F)c(Cl)c(N)c1Cl)C(=O)OCc1ccc(F)cc1 (stereo not drawn) [Compound 2-312],5 (Level 5: the growth inhibition rate is greater than 85%),5 (Level 5: the growth inhibition rate is greater than 85%),5 (Level 5: the growth inhibition rate is greater than 85%),5 (Level 5: the growth inhibition rate is greater than 85%),5 (Level 5: the growth inhibition rate is greater than 85%)
CC(Oc1nc(F)c(Cl)c(N)c1Cl)C(=O)SCc1ccc(F)cc1 (stereo not drawn) [Compound 2-313],5 (Level 5: the growth inhibition rate is greater than 85%),5 (Level 5: the growth inhibition rate is greater than 85%),5 (Level 5: the growth inhibition rate is greater than 85%),5 (Level 5: the growth inhibition rate is greater than 85%),5 (Level 5: the growth inhibition rate is greater than 85%)
CC(Oc1nc(F)c(Cl)c(N)c1Cl)C(=O)OCc1ccccc1Cl (stereo not drawn) [Compound 2-314],5 (Level 5: the growth inhibition rate is greater than 85%),5 (Level 5: the growth inhibition rate is greater than 85%),5 (Level 5: the growth inhibition rate is greater than 85%),5 (Level 5: the growth inhibition rate is greater than 85%),5 (Level 5: the growth inhibition rate is greater than 85%)
